Legend:
[1] = Encapsulation efficiency (EE %) by fluorescence based Ribogreen assay; assay type: physicochemical
[2] = LNP size and polydispersity index (PDI) by dynamic light scattering (DLS); assay type: physicochemical
[3] = LNP Zeta potential measured using a Zetasizer (Malvern); assay type: physicochemical; settings: for Zeta (mV): Vaccine Study 2, LNP with spike mRNA, 50/10/38.5/1.5 mol % ionizable lipid:helper lipid:cholesterol:DMG-PEG2k, N-to-P ratio 6; for Zeta potential: hEPO mRNA, N:P 6; for Zeta potential (mV): LNP with hEPO mRNA, N:P ratio 6
[4] = Apparent pKa of the LNPs by fluorescence based TNS assay; settings: for Apparent pKa: Vaccine Study 2, LNP with spike mRNA, 50/10/38.5/1.5 mol % ionizable lipid:helper lipid:cholesterol:DMG-PEG2k, N-to-P ratio 6
[5] = Vaccine Study 2, LNP with spike mRNA, 50/10/38.5/1.5 mol % ionizable lipid:helper lipid:cholesterol:DMG-PEG2k, N-to-P ratio 6
[6] = Example 19 Study 1, LNP with SARS-CoV-2 spike mRNA, N:P 6, standard mol. ratios unless noted "opt"
[7] = Table 1, LNP lipid:DSPC:Cholesterol:DMG-PEG2k 50:10:38.5:1.5 mol %, hEPO mRNA, N:P 6
[8] = Table 7, LNP 50:10:38.5:1.5 mol %, helper lipid DSPC, hEPO mRNA, N:P 6
[9] = Table 7, LNP ionizable lipid:Helper Lipid:Cholesterol:DMG-PEG2k 50:10:38.5:1.5 mol %, helper lipid DSPC, hEPO mRNA, N:P 6
[10] = Table 8, LNP 50:10:38.5:1.5 mol %, hEPO mRNA, N:P 6
[11] = Table 8, LNP Lipid:DSPC:Cholesterol:DMG-PEG2k 50:10:38.5:1.5 mol %, hEPO mRNA, N:P 6
[12] = Table 9, LNP 50:10:38.5:1.5 mol %, hEPO mRNA, N:P 6
[13] = Table 9, LNP Lipid:DSPC:Cholesterol:DMG-PEG2k 50:10:38.5:1.5 mol %, hEPO mRNA, N:P 6
[14] = Table 10, LNP with hEPO mRNA, Lipid:DSPC:Cholesterol:DMG-PEG2k 50:10:38.5:1.5 mol %, N:P ratio 6, DLS
[15] = Table 11, LNP with hEPO mRNA, Lipid:DSPC:Cholesterol:DMG-PEG2k 50:10:38.5:1.5 mol % (ALC-0315: 46.3:9.4:42.7:1.6), N:P ratio 6, HEPES/sodium chloride/sucrose buffer, stored at −80C
[16] = Table 7, LNP 50:10:38.5:1.5 mol %, helper lipid DSPC
[17] = Table 8, LNP 50:10:38.5:1.5 mol %
[18] = Table 10, Lipid:DSPC:Cholesterol:DMG-PEG2k 50:10:38.5:1.5 mol %
[19] = Table 6, LNP 50:10:38.5:1.5 mol %, hEPO mRNA, N:P 6
[20] = Table 6, LNP 60:0:38.5:1.5 mol %, hEPO mRNA, N:P 6
[21] = Table 6, LNP lipid:DSPC:Cholesterol:DMG-PEG2k 50:10:38.5:1.5 mol %, hEPO mRNA, N:P 6
[22] = Table 6, LNP 50:10:38.5:1.5 mol %
[23] = Table 6, LNP 60:0:38.5:1.5 mol %
[24] = Table 5, LNP 50:10:38.5:1.5 mol %, hEPO mRNA, N:P 6
[25] = Table 7, LNP 30:10:58.5:1.5 mol %, helper lipid DOPC, hEPO mRNA, N:P 6
[26] = Table 7, LNP 30:10:58.5:1.5 mol %, helper lipid DOPE, hEPO mRNA, N:P 6
[27] = Table 7, LNP 30:10:58.5:1.5 mol %, helper lipid DSPC, hEPO mRNA, N:P 6
[28] = Table 7, LNP 50:10:38.5:1.5 mol %, helper lipid DOPC, hEPO mRNA, N:P 6
[29] = Table 7, LNP 50:10:38.5:1.5 mol %, helper lipid DOPE, hEPO mRNA, N:P 6

In the case of CCCCCCCCC(CCCCCC)C(=O)OCCN(CCOC(=O)C(CCCCCC)CCCCCCCC)C(=O)CCCN(CCC)CCC.Cl (stereo not drawn) [Compound 981], the “EE (%)” value [1, 5] is reported as 98.3%, the PDI [2, 5] is reported as 0.054 and the “Size (nm)” value [2, 5] is reported as 84.3 nm. For the same compound, the “Zeta (mV)” value [3] was −8.8 mV and the “Apparent pKa” value [4] was 7.3.

For CCCCC/C=C\C/C=C\CCCCCCCCC(CCCCCCCC/C=C\C/C=C\CCCCC)OC(=O)CCCN(C)C [Dlin-MC3-DMA, dilinoleylmethyl-4-dimethylaminobutyrate, reference compound], the “Apparent pKa” value [4] was 6.7.

In the case of CCCCCCCCCCCOC(=O)CCCCCN(CCO)CCCCCCCC(=O)OC(CCCCCCCC)CCCCCCCC [SM-102, reference compound], the “EE (%)” value [1, 6] is reported as 91.5%, the “EE (%)” value [1, 5] is reported as 97.8% and the PDI [2, 6] is reported as 0.065. For the same compound, the Size [2, 6] was 94.8 nm, the PDI [2, 7] was 0.074 and the Size [2, 7] was 81.8 nm. It also gave a PDI [2, 8] of 0.041, a Size [2, 9] of 75.3 nm and a PDI [2, 10] of 0.042. The Size [2, 11] was 80.3 nm, the PDI [2, 12] was 0.098 and the Size [2, 13] was 80.7 nm. The PDI [2, 14] was 0.272, the “Size (nm)” value [2, 14] was 56.5 nm and the PDI [2, 15] was 0.087. The “Size (nm)” value [2, 15] was 69.6 nm, the PDI [2, 5] was 0.127 and the “Size (nm)” value [2, 5] was 88.4 nm. The Zeta potential ([3]; Table 1, LNP lipid:DSPC:Cholesterol:DMG-PEG2k 50:10:38.5:1.5 mol %) was −3.729 mV, the Zeta potential [3, 16] was −17.15 mV and the Zeta potential [3, 17] was −9.7 mV. The “Zeta potential (mV)” value [3, 18] was −5.9 mV, the “Zeta potential (mV)” value ([3]; Table 11, Lipid:DSPC:Cholesterol:DMG-PEG2k 50:10:38.5:1.5 mol % (ALC-0315: 46.3:9.4:42.7:1.6), HEPES/sodium chloride/sucrose buffer, stored at −80C) was −1.0 mV and the “Zeta (mV)” value [3] was −4.1 mV. For the same compound, the “Apparent pKa” value [4] was 7.2.

With CCCCCCCC(CCCCCCC)C(=O)OCCN(CCOC(=O)C(CCCCCCC)CCCCCCC)C(=O)CCCN(C)C [Compound 932] the “Encapsulation Efficiency %” value [1, 10] was 99.9%, the PDI [2, 10] was 0.155 and the Size [2, 11] was 123.7 nm. For the same compound, the Zeta potential [3, 17] was −9.4 mV and the pKa ([4]; Table 8, apparent pKa of LNP 50:10:38.5:1.5 mol %, hEPO mRNA, N:P 6) was 6.92.

In the case of CCCCCCCCC(CCCCCC)C(=O)OCCN(CCOC(=O)C(CCCCCC)CCCCCCCC)C(=O)CC(C)N (stereo not drawn) [Compound 802], the “Encapsulation Efficiency %” value [1, 19] is reported as 98.4%, the “Encapsulation Efficiency %” value [1, 20] is reported as 98.4% and the PDI [2, 19] is reported as 0.224. For the same compound, the PDI [2, 20] was 0.195, the Size [2, 20] was 87.6 nm and the Size [2, 21] was 104.5 nm. It also gave a Zeta potential [3, 22] of −1.8 mV and a Zeta potential [3, 23] of 0.1 mV.

With CCCCCCCCC(CCCCCC)C(=O)OCCN(CCOC(=O)C(CCCCCC)CCCCCCCC)C(=O)CN(C)CCO.Cl (stereo not drawn) [Compound 960g] the “Encapsulation Efficiency %” value [1, 12] was 99%, the PDI [2, 12] was 0.254 and the Size [2, 13] was 72.6 nm. For the same compound, the Zeta potential ([3]; Table 9, LNP 50:10:38.5:1.5 mol %) was −12.1 mV.

For CCCCCCCCCCC(CCCC)C(=O)OCCN(CCOC(=O)C(CCCC)CCCCCCCCCC)C(=O)C(N)Cc1ccccc1 (stereo not drawn) [Compound 619], the “Encapsulation Efficiency %” value [1, 24] was 98.1%, the PDI [2, 24] was 0.183 and the Size ([2]; Table 5, LNP Lipid:DSPC:Cholesterol:DMG-PEG2k 50:10:38.5:1.5 mol %, hEPO mRNA, N:P 6) was 60.7 nm. It also gave a Zeta potential ([3]; Table 5, LNP 50:10:38.5:1.5 mol %) of −11.63 mV.

With CCCCCCCCC(CCCCCC)C(=O)OCCN(CCOC(=O)C(CCCCCC)CCCCCCCC)C(=O)CCN(C)C (stereo not drawn) [Compound 808] the “Encapsulation Efficiency %” value [1, 19] was 97%, the “Encapsulation Efficiency %” value [1, 20] was 99.2% and the “Encapsulation Efficiency %” value [1, 25] was 99.5%. The “Encapsulation Efficiency %” value [1, 26] was 99.7%, the “Encapsulation Efficiency %” value [1, 27] was 99.6% and the “Encapsulation Efficiency %” value [1, 28] was 98.8%. For the same compound, the “Encapsulation Efficiency %” value [1, 29] was 99.5%, the “Encapsulation Efficiency %” value [1, 8] was 98.8% and the PDI [2, 19] was 0.114. The PDI [2, 20] was 0.012, the Size [2, 20] was 131.4 nm and the Size [2, 21] was 96.3 nm. The PDI [2, 25] was 0.113, the Size [2, 25] was 120.1 nm and the PDI [2, 26] was 0.105. The Size [2, 26] was 79.1 nm, the PDI [2, 27] was 0.033 and the Size [2, 27] was 93.8 nm. It also gave a PDI [2, 28] of 0.131, a Size [2, 28] of 99.1 nm and a PDI [2, 29] of 0.214. For the same compound, the Size [2, 29] was 134.5 nm, the PDI [2, 8] was 0.13 and the Size [2, 9] was 114.4 nm. The Zeta potential [3, 22] was −0.3 mV, the Zeta potential [3, 23] was −0.4 mV and the Zeta potential ([3]; Table 7, LNP 30:10:58.5:1.5 mol %, helper lipid DOPC) was −9.115 mV. It also gave a Zeta potential ([3]; Table 7, LNP 30:10:58.5:1.5 mol %, helper lipid DOPE) of −10.16 mV, a Zeta potential ([3]; Table 7, LNP 30:10:58.5:1.5 mol %, helper lipid DSPC) of −7.184 mV and a Zeta potential ([3]; Table 7, LNP 50:10:38.5:1.5 mol %, helper lipid DOPC) of −8.233 mV. The Zeta potential ([3]; Table 7, LNP 50:10:38.5:1.5 mol %, helper lipid DOPE) was −7.52 mV and the Zeta potential [3, 16] was −7.7 mV.

In the case of CCCCCCCCC(CCCCCC)C(=O)OCCN(CCOC(=O)C(CCCCCC)CCCCCCCC)C(=O)CCCN (stereo not drawn) [Compound 804], the “Encapsulation Efficiency %” value [1, 19] is reported as 98.3%, the “Encapsulation Efficiency %” value [1, 20] is reported as 99.9% and the PDI [2, 19] is reported as 0.281. The PDI [2, 20] was 0.147, the Size [2, 20] was 81.1 nm and the Size [2, 21] was 96 nm. For the same compound, the Zeta potential [3, 22] was −1.7 mV and the Zeta potential [3, 23] was 2.8 mV.

With CCCCCCCCC(CCCCCC)C(=O)OCCN(CCOC(=O)CCCCCCC(C)C)C(=O)CCN(CC)CC (stereo not drawn) [Compound 917d] the “Encapsulation Efficiency %” value ([1]; Table 10, LNP with hEPO mRNA, Lipid:DSPC:Cholesterol:DMG-PEG2k 50:10:38.5:1.5 mol %, N:P ratio 6, Ribogreen assay) was 60.3%, the PDI [2, 14] was 0.096 and the “Size (nm)” value [2, 14] was 122 nm. For the same compound, the “Zeta potential (mV)” value [3, 18] was −3.3 mV.
